# Assay results from patent US5932189A, “Cyclic peptide somatostatin analogs” (Diatech, Inc., priority 1994, dated 1999).
# pKi: −log10 of the molar value. Square brackets hold non-standard residues; d marks the D form. Peptide text beside a SMILES is read from it. * marks the point of attachment. X4 = NCCCC[C@H](NC(=O)[C@H](CS)NC(=O)CNC(=O)[C@@H](N)CCCCNC(=O)C*)C(N)=O; X8 = NC(=O)[C@H](CCC(=O)O)NC(=O)[C@H](CS)NC(=O)CNC(=O)[C@H](CS)NC(=O)C*; X2 = N=C(N)NCCC[C@H](NC(=O)[C@H](CS)NC(=O)CNC(=O)CNC(=O)C*)C(N)=O; X1 = NCCCC[C@H](NC(=O)[C@H](CS)NC(=O)CNC(=O)CNC(=O)C*)C(N)=O; NMeF = CN[C@@H](Cc1ccccc1)C(=O)O; hCys = N[C@@H](CCS)C(=O)O
# Target: T1, somatostatin receptors (Rattus norvegicus, UniProt P30680)
# T1 construct: endogenous in cells; host or cells: AR42J rat pancreatic tumor cell line (membrane preparation)
# T1 sequence (P30680 whole entry): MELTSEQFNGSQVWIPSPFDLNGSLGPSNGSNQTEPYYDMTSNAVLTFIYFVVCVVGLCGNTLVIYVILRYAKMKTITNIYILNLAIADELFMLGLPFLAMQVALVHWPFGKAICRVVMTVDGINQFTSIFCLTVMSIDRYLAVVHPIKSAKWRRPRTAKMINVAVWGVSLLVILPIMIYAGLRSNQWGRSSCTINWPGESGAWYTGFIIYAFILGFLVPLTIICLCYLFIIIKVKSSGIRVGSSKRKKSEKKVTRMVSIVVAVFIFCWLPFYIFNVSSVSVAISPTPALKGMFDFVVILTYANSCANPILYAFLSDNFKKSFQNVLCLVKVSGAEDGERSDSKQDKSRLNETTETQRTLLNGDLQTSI
# Experiment: Inhibition of binding of (125I-Tyr11)somatostatin-14 to AR42J rat pancreatic tumor cell membranes
# Settings: 0.5 nM (125I-Tyr11)somatostatin-14, 25 min at 30° C., Hill plots
# Protocol: Inhibition of Binding of (^125 I-Tyr^11)somatostatin-14 to AR42J Rat Pancreatic Tumor Cell Membranes
# The rat pancreatic tumor cell line AR42J which expresses the somatostatin receptor was cultured in Dulbecco's minimal essential media (DMEM) supplemented with 10% fetal bovine serum (FBS) and 8 mM glutamine in a humidified 5% CO2 atmosphere at 37° C. in T-flasks. Harvested cells were homogenized in cold 50 mM Tris-HCl buffer (pH 7.4) and the homogenate then centrifuged at 39,000 g for 10 min at 4° C. Pellets were washed once with buffer and then resuspended in an ice-cold solution of 10 mM Tris-HCl (pH 7.4). Equal aliquots of this cell membrane preparation were incubated with (^125 I-Tyr^11)somatostatin-14 (at a final concentration of 0.5 nM and 750,000 cpm/mL, at a specific activity of 2000 Ci/mmol, Amersham, Arlington Heights, Ill.) and peptide at a final concentration of from 10^-11 M to 10^-6 M in a solution of 50 mM HEPES (pH 7.4) containing 1% bovine serum albumin (BSA), 5 mM MgCl2, Trasylol (200,000 International Units), bacitracin (0.02 mg/mL) and phenylmethylsulfonylfluoride (0.02 mg/mL) for 25 min at 30° C. Using a filtration manifold, this mixture was filtered through a polyethyleneimine-washed GC/F filter (Whatman, Maidstone, England), and the residue remaining on the filter washed thrice with 5 mL cold HEPES buffer. The filter and a sample of the filter washings were then counted in a gamma counter. To assess non-specific binding, the assay was performed in the presence of unlabeled somatostatin-14 at 200 nM. Data analysis including Hill plots of the data provided inhibition constants (see Bylund & Yamamura, "Methods of receptor binding", in Methods in Neurotransmitter Receptor Analysis, Yamamura et al., eds., Raven Press: New York, 1990).
row,SMILES,pKi
1,C[C@@H](O)[C@@H]1NC(=O)[C@H](CCCCN)NC(=O)[C@@H](Cc2c[nH]c3ccccc23)NC(=O)[C@H](Cc2ccc(O)cc2)NC(=O)[C@H](Cc2ccccc2)N(C)C(=O)[C@H](CCS)NC1=O [cyclo.(N--CH3)F.YWD KT.Hcy] (cyclo(KT[hCys][NMeF]Y[dW])),9.59
2,CC(C)[C@@H]1NC(=O)[C@H](CCCCN)NC(=O)[C@@H](Cc2c[nH]c3ccccc23)NC(=O)[C@H](Cc2ccc(O)cc2)NC(=O)[C@H](Cc2ccccc2)N(C)C(=O)[C@H](CCSCC(=O)NCCCC[C@H](N)C(=O)NCC(=O)N[C@@H](CS)C(=O)N[C@@H](CCCCN)C(N)=O)NC1=O [cyclo.(N--CH3)F.YWD KV.Hcy(CH2 CO.(ε-K)GCK.amide)] (cyclo([NMeF]Y[dW]KV[hCys](X4))),8.38
3,CC(C)[C@@H]1NC(=O)[C@H](CCCCN)NC(=O)[C@@H](Cc2c[nH]c3ccccc23)NC(=O)[C@H](Cc2ccc(O)cc2)NC(=O)[C@H](Cc2ccccc2)N(C)C(=O)[C@H](CCSCC(=O)N[C@@H](CS)C(=O)NCC(=O)N[C@@H](CS)C(=O)N[C@@H](CCC(=O)O)C(N)=O)NC1=O [cyclo.(N--CH3)F.YWD KV.Hcy(CH2 CO.CGCE.amide)] (cyclo(KV[hCys](X8)[NMeF]Y[dW])),8.07
4,CC(C)[C@@H]1NC(=O)[C@H](CCCCN)NC(=O)[C@@H](Cc2c[nH]c3ccccc23)NC(=O)[C@H](Cc2ccc(O)cc2)NC(=O)[C@H](Cc2ccccc2)N(C)C(=O)[C@H](CCSCC(=O)NCC(=O)NCC(=O)N[C@@H](CS)C(=O)N[C@@H](CCCCN)C(N)=O)NC1=O [cyclo.(N--CH3)F.YWD KV.Hcy(CH2 CO.GGCK.amide)] (cyclo([NMeF]Y[dW]KV[hCys](X1))),8.60
5,CC(C)[C@@H]1NC(=O)[C@H](CCCCN)NC(=O)[C@@H](Cc2c[nH]c3ccccc23)NC(=O)[C@H](Cc2ccc(O)cc2)NC(=O)[C@H](Cc2ccccc2)N(C)C(=O)[C@H](CCSCC(=O)NCC(=O)NCC(=O)N[C@@H](CS)C(=O)N[C@@H](CCCNC(=N)N)C(N)=O)NC1=O [cyclo.(N--CH3)F.YWD KV.Hcy(CH2 CO.GGCR.amide)] (cyclo([NMeF]Y[dW]KV[hCys](X2))),9.54
6,CC(C)[C@@H]1NC(=O)[C@H](CCCCN)NC(=O)[C@@H](Cc2c[nH]c3ccccc23)NC(=O)[C@H](Cc2ccc(O)cc2)NC(=O)[C@H](Cc2ccccc2)N(C)C(=O)[C@H](CCS)NC1=O [cyclo.(N--CH3)F.YWD KV.Hcy] (cyclo(KV[hCys][NMeF]Y[dW])),> 11.00
